Results: ChEMBL document CHEMBL1154793, “The lecanindoles, nonsteroidal progestins from the terrestrial fungus Verticillium lecanii 6144” (J Nat Prod, 2009)

How the values were obtained:
Estrogen receptor beta = Estrogen receptor beta (Homo sapiens, UniProt Q92731); assay: Agonist activity at estrogen receptor beta ligand binding domain expressed in african green monkey COS7 cells co-transfected with Gal4-LBD up to 10 uM by luciferase reporter gene assay; format: cell-based; settings: cos-7
Androgen receptor = molecular target: T1, Androgen receptor (Homo sapiens, UniProt P10275)
T1 sequence (P10275 whole entry): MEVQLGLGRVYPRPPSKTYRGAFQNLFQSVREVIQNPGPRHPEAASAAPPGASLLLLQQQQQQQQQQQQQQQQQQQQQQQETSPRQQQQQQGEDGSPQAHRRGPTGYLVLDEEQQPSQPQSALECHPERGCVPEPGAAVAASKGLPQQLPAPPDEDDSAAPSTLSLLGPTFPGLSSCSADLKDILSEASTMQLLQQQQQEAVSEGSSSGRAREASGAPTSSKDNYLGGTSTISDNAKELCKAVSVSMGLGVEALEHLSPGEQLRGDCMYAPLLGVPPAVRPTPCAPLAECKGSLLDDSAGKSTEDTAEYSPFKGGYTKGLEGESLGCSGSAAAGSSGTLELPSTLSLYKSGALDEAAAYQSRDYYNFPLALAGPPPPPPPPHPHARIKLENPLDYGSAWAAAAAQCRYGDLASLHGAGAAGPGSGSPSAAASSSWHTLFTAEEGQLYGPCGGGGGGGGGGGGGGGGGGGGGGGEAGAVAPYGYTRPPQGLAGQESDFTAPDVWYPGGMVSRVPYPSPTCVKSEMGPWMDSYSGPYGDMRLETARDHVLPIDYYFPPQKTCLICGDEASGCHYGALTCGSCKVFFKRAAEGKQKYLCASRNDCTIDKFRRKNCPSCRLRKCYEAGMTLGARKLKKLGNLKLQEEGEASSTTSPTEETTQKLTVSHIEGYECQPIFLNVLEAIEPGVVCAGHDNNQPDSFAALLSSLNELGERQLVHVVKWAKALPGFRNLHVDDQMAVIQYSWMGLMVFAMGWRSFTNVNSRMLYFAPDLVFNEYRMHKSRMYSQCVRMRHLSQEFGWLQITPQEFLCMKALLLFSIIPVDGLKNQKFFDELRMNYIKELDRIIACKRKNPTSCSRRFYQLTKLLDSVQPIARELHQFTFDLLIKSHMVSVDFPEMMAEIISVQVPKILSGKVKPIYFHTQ
Description: Antagonist activity at androgen receptor ligand binding domain expressed in african green monkey COS7 cells co-transfected with Gal4-LBD by luciferase reporter gene assay

[1] = molecular target: T2, Estrogen receptor (Homo sapiens) (UniProt P03372); assay: Agonist activity at estrogen receptor alpha ligand binding domain expressed in african green monkey COS7 cells co-transfected with Gal4-LBD by luciferase reporter gene assay relative to control; format: cell-based; settings: COS-7
T2 sequence (whole entry): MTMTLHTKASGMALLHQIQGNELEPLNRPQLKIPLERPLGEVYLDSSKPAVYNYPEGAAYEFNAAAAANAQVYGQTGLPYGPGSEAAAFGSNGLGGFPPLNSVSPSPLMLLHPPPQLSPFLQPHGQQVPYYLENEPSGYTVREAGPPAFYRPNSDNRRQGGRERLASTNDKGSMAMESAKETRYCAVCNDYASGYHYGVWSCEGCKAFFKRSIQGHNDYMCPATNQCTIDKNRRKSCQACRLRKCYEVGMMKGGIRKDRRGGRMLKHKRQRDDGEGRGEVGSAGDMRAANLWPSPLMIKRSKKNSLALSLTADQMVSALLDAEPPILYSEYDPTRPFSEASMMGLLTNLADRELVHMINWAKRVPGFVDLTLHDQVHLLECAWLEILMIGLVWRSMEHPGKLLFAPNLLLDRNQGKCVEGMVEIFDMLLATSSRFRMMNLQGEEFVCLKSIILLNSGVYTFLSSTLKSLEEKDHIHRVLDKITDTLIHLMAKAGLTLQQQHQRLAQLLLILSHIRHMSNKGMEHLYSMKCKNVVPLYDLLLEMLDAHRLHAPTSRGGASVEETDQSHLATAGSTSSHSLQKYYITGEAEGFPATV

[2] = molecular target: T3, Glucocorticoid receptor (Homo sapiens) (UniProt P04150); assay: Antagonist activity at glucocorticoid receptor ligand binding domain expressed in african green monkey COS7 cells co-transfected with Gal4-LBD by luciferase reporter gene assay relative to control; format: cell-based; parameters: scale not given: the % may be the effect or the level left; settings: COS-7
T3 sequence (whole entry): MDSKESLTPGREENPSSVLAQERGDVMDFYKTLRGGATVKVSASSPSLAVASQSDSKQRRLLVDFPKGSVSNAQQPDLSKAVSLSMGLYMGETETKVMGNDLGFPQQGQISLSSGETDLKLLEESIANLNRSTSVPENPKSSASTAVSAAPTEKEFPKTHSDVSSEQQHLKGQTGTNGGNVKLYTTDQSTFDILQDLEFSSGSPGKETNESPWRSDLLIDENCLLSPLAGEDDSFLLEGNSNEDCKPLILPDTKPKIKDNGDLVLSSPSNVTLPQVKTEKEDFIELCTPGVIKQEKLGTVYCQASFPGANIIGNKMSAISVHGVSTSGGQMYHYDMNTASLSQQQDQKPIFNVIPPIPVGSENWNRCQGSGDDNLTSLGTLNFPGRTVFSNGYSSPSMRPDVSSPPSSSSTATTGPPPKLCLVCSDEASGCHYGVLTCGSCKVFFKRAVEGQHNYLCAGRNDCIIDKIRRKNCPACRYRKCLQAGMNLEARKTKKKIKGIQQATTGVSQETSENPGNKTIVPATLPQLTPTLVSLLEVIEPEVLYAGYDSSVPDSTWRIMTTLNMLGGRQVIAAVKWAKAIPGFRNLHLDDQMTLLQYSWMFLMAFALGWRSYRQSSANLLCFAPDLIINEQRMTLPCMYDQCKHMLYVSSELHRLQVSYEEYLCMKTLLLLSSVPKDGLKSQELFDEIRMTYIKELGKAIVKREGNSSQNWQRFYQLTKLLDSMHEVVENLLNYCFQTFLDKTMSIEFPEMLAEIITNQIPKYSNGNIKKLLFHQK

[3] = molecular target: T2, Estrogen receptor (Homo sapiens); assay: Antagonist activity at estrogen receptor alpha ligand binding domain expressed in african green monkey COS7 cells co-transfected with Gal4-LBD by luciferase reporter gene assay relative to control; format: cell-based; parameters: scale not given: the % may be the effect or the level left; settings: COS-7

Chain of Estrogen receptor beta (Q92731 whole entry, the tested form may be a part): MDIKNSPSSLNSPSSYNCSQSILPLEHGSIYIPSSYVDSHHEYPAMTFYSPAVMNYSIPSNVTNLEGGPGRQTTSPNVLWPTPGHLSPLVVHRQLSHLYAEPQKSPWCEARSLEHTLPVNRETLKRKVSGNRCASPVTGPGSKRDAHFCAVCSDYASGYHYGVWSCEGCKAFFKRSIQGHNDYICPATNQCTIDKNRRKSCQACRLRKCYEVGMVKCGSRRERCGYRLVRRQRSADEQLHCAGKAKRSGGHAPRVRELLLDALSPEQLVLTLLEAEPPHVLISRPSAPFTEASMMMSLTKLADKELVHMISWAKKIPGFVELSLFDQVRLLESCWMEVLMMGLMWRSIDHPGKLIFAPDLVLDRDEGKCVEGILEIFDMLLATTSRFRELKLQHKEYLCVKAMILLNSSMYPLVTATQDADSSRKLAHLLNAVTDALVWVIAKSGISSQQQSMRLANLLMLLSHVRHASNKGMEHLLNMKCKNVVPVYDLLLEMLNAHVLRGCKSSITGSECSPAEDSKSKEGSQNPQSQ

Compound	EC50 (Estrogen receptor beta)	IC50 (Androgen receptor) [µM]	Activity [1] [%]	Activity [2] [%]	Activity [3] [%]
CC1(C)C(=O)CC[C@]2(C)[C@@]3(C)c4[nH]c5ccccc5c4C[C@@H]3CC[C@@]12O [LECANINDOLE B]	Not Active	> 10	8	–	–
CC1(C)[C@H](O)CC[C@]2(C)[C@@]3(C)c4[nH]c5ccccc5c4C[C@@H]3CC[C@@]12O [LECANINDOLE D]	Not Active	> 10	35	58	19
